From PubChem BioAssay (NCI)
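48-hour exposure; five concentrations; linearly interpolated endpoints. GI50 is the concentration that inhibits growth by half. The concentration for full growth arrest is given as TGI.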

Legend:
Assay in all cases: DTP human tumour cell line panel, 48 h
DU-145 prostate = test system: DU-145 prostate
IGROV1 ovarian = test system: IGROV1 ovarian
MCF7 breast = test system: MCF7 breast
NCI-H226 lung = test system: NCI-H226 lung
OVCAR-5 ovarian = test system: OVCAR-5 ovarian
RPMI-8226 leukemia = test system: RPMI-8226 leukemia
SF-268 CNS = test system: SF-268 CNS
SK-MEL-5 melanoma = test system: SK-MEL-5 melanoma
SNB-75 CNS = test system: SNB-75 CNS
TK-10 renal = test system: TK-10 renal
CCRF-CEM leukemia = test system: CCRF-CEM leukemia
MOLT-4 leukemia = test system: MOLT-4 leukemia
OVCAR-3 ovarian = test system: OVCAR-3 ovarian
SF-295 CNS = test system: SF-295 CNS
HS 578T breast = test system: HS 578T breast
NCI-H522 lung = test system: NCI-H522 lung
SK-OV-3 ovarian = test system: SK-OV-3 ovarian

SMILES | TGI (DU-145 prostate) | TGI (IGROV1 ovarian) | TGI (MCF7 breast) | TGI (NCI-H226 lung) | TGI (OVCAR-5 ovarian) | TGI (RPMI-8226 leukemia) | TGI (SF-268 CNS) | TGI (SK-MEL-5 melanoma) | TGI (SNB-75 CNS) | TGI (TK-10 renal) | TGI (CCRF-CEM leukemia) | TGI (MOLT-4 leukemia) | TGI (OVCAR-3 ovarian) | TGI (SF-295 CNS) | TGI (HS 578T breast) | TGI (NCI-H522 lung) | TGI (SK-OV-3 ovarian) | GI50 (CCRF-CEM leukemia) | GI50 (DU-145 prostate) | GI50 (OVCAR-3 ovarian)
CCN(CC)CCCC(C)NC(=O)c1cc(-c2nccn2C)nc2ccc(C)cc12 (stereo not given) | > 100 µM | > 100 µM | > 100 µM | > 100 µM | > 100 µM | > 100 µM | > 100 µM | > 100 µM | > 100 µM | > 100 µM | – | – | – | – | – | – | – | – | – | –
CC(=O)c1ccc(N2CCN(c3c(O)c4c(c(O)c3Cl)C(=O)C=CC4=O)CC2)cc1 | 31.2 µM | 15.5 µM | 2.8 µM | – | 33 µM | 9.43 µM | 8.12 µM | 20.3 µM | 26.6 µM | – | 2.07 µM | 4.57 µM | 18.2 µM | 33.9 µM | – | – | – | – | – | –
Cn1c(N(CCO)CCO)cnc1[N+](=O)[O-] | – | > 100 µM | > 100 µM | > 100 µM | > 100 µM | > 100 µM | > 100 µM | > 100 µM | > 100 µM | > 100 µM | > 100 µM | > 100 µM | > 100 µM | > 100 µM | > 100 µM | > 100 µM | > 100 µM | – | – | –
NC(=O)NC(CC(=O)O)C(=O)O (stereo not given) | > 100 µM | > 100 µM | – | > 100 µM | > 100 µM | > 100 µM | > 100 µM | > 100 µM | > 100 µM | > 100 µM | > 100 µM | > 100 µM | > 100 µM | > 100 µM | > 100 µM | > 100 µM | – | – | – | –
CCCCCCNC(=O)c1cc(C#Cc2cc(OC)ccc2OC)ccc1OC | > 100 µM | > 100 µM | > 100 µM | – | > 100 µM | > 100 µM | > 100 µM | > 100 µM | – | > 100 µM | > 100 µM | > 100 µM | > 100 µM | > 100 µM | > 100 µM | > 100 µM | > 100 µM | 7.9 µM | > 100 µM | > 100 µM
C=C[C@@]1(C)CC2CC[C@]3(C)C(C)=CC(=O)CC3[C@]2(C)CC1O (stereo not given in full) | > 100 µM | > 100 µM | > 100 µM | > 100 µM | > 100 µM | > 100 µM | > 100 µM | > 100 µM | – | > 100 µM | > 100 µM | > 100 µM | > 100 µM | > 100 µM | > 100 µM | 74.4 µM | > 100 µM | – | – | –
CC1=C2C(=O)C3[C@@H](CCC4=CC(=O)CC[C@@]43C)C2CC[C@]12O[C@@H]1C[C@H](C)CN[C@H]1[C@H]2C (stereo not given in full) | – | > 100 µM | – | > 100 µM | – | 49.7 µM | > 100 µM | > 100 µM | > 100 µM | 98.7 µM | 40.1 µM | 41.4 µM | > 100 µM | > 100 µM | – | 37.1 µM | > 100 µM | – | – | –
Cn1c(=O)cc(NNc2ccc(Br)cc2)[nH]c1=O | 19.3 µM | 23.1 µM | 26.8 µM | 39.1 µM | 26.2 µM | 46 µM | – | 30.2 µM | – | 34.9 µM | > 100 µM | – | 14.7 µM | 26.2 µM | 9.34 µM | – | – | – | – | –
Nc1ccc2cc(S(=O)(=O)O)cc(O)c2c1N=Nc1ccc(NC(=O)Nc2ccc(N=Nc3c(N)ccc4cc(S(=O)(=O)O)cc(O)c34)c(S(=O)(=O)O)c2)cc1S(=O)(=O)O | – | > 100 µM | > 100 µM | > 100 µM | > 100 µM | – | > 100 µM | > 100 µM | > 100 µM | – | > 100 µM | > 100 µM | > 100 µM | > 100 µM | – | > 100 µM | > 100 µM | – | – | –
CC1(C)N(OC2CCCCO2)C(c2ccccc2)C(c2ccccc2)=[N+]1[O-] (stereo not given) | – | > 100 µM | > 100 µM | > 100 µM | > 100 µM | – | – | > 100 µM | > 100 µM | > 100 µM | > 100 µM | > 100 µM | > 100 µM | > 100 µM | > 100 µM | – | > 100 µM | – | – | –
C=C1C(=O)OC2C[C@H](C)C3CC(=O)C(C)=C3CC12 (stereo not given in full) | – | 31.4 µM | – | 30.6 µM | 28.9 µM | 21.9 µM | 38.7 µM | 33.3 µM | 32.6 µM | 30.5 µM | 15.7 µM | 23.3 µM | 26.2 µM | > 62.3 µM | – | 3.66 µM | > 100 µM | – | – | –
CC1=Nc2nc3ccccc3n2C(C)(C)C1 | – | > 100 µM | > 100 µM | > 100 µM | > 100 µM | > 100 µM | > 100 µM | > 100 µM | > 100 µM | > 100 µM | > 100 µM | > 100 µM | > 100 µM | > 100 µM | > 100 µM | > 100 µM | > 100 µM | – | – | –
C/C(O)=C(/C=N\C(=S)Nc1ccc(Cl)c(Cl)c1)C(=O)Nc1ccccc1C | 92 µM | > 100 µM | > 100 µM | 88.7 µM | > 100 µM | – | > 100 µM | 44 µM | 66.3 µM | > 100 µM | – | 54.9 µM | > 100 µM | > 100 µM | – | – | > 100 µM | – | – | –
COc1ccc(-c2nc(N(C)C)c3ccccc3n2)cc1 | – | > 100 µM | 24.1 µM | 21.8 µM | 62.2 µM | 24.3 µM | 99.3 µM | 26.2 µM | 40.4 µM | 65.8 µM | – | 15.8 µM | – | 46.3 µM | 59.2 µM | 27.8 µM | 48.2 µM | – | – | –
Cc1cccc2nc3n(c12)C(=O)c1ccccc1-3 | > 100 µM | > 100 µM | > 100 µM | > 100 µM | > 100 µM | > 100 µM | > 100 µM | – | > 100 µM | > 100 µM | > 100 µM | > 100 µM | > 100 µM | > 100 µM | – | > 100 µM | > 100 µM | – | – | –
OC(c1ccc(F)cc1)C(F)(F)c1nc(-c2ccccc2)no1 (stereo not given) | 50.4 µM | > 100 µM | 50.3 µM | – | 35.6 µM | – | 62.9 µM | – | – | > 100 µM | 52.2 µM | – | 30.6 µM | – | 63.9 µM | > 100 µM | – | – | – | –
